In US8017612B2, “Piperazine compound and use thereof as a HCV polymerase inhibitor” (priority 2006, dated 2011):
Structures can show the parent of a compound that is named as a salt.

Legend:
[1] = biological target: T1, HCV polymerase (NS5B) type 1b (Hepatitis C virus genotype 1b, UniProt P26663); test: Assay of enzyme (HCV polymerase) inhibitory activity, type 1b enzyme; format: biochemical, HCV BK strain (type 1b)
T1 construct: a region encoding NS5B (J Virol 1991 March, 65(3), 1105-13, 544 amino acids after deletion of 47 amino acids on the C-terminal); 6xHis (C); made in house; host or cells: Escherichia coli
Procedure, shortened: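 His-tagged, C-terminally truncated NS5B (BK strain, 1b; 0.5 μg/ml) incubated with compound 60 min at 25 °C on 3′UTR-derived substrate RNA (5 μg/ml), 50 μM ATP/GTP/CTP, 2 μM UTP plus [3H]UTP, pH 7.5. Acid-precipitated RNA counted; IC50 from radioactivity with and without compound.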

[2] = biological target: T2, HCV polymerase (NS5B) type 1a (Hepatitis C virus genotype 1a, UniProt P26664); test: Assay of enzyme (HCV polymerase) inhibitory activity, type 1a enzyme; format: biochemical, HCV type 1a (cloned from the blood of patients)
T2 construct: made in house; host or cells: Escherichia coli (by the 'similar method' of the 1b enzyme)
Procedure, shortened: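 His-tagged NS5B, C-terminal 47 residues deleted, type 1a at 1.5 μg/ml, with 5 μg/ml HCV 3′UTR substrate RNA, 50 μM ATP/GTP/CTP, 2 μM UTP plus [3H]UTP, pH 7.5 Tris, 5 mM MgCl2; 60 min at 25° C. TCA-precipitated RNA counted by scintillation; IC50 from radioactivity with vs. without compound.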

[3] = HCV polymerase inhibitory activity (IC50), 1b, type 1b enzyme 0.5 μg/ml, 25° C., 60 min
[4] = HCV polymerase inhibitory activity (IC50), 1a, type 1a enzyme 1.5 μg/ml, 25° C., 60 min
[5] = HCV polymerase inhibitory activity IC50, 1b, type 1b enzyme
[6] = HCV polymerase inhibitory activity IC50, 1a, type 1a enzyme

Row | SMILES | IC50 [1, 3] | IC50 [2, 4] | IC50 [1, 5] | IC50 [2, 6]
1 | CC(C)c1ccc(CNC(=O)[C@H]2CN(C(=O)Cc3c[nH]cn3)CCN2S(=O)(=O)c2ccc(C(F)(F)F)cc2)cc1 [Example 195, (R)-4-(2-1H-imidazol-4-yl-acetyl)-1-(4-trifluoromethyl-benzenesulfonyl)-piperazine-2-carboxylic acid 4-isopropyl-benzylamide] | 100 to 1000 nM | 100 to 1000 nM | – | –
2 | Cc1nc(N2CCN(S(=O)(=O)c3ccc(OC(F)(F)F)cc3)[C@@H](C(=O)NCc3ccc(N(C)C)cc3)C2)sc1C(=O)O [Example 379, 2-[(R)-3-(4-dimethylamino-benzylcarbamoyl)-4-(4-trifluoromethoxy-benzenesulfonyl)-piperazin-1-yl]-4-methyl-thiazole-5-carboxylic acid hydrochloride] | < 100 nM | < 100 nM | – | –
3 | Cc1ncc2sc(N3CCN(S(=O)(=O)c4ccc(OC(F)(F)C(F)F)cc4)[C@@H](C(=O)NCc4ccc(OC(F)F)cc4)C3)nc2n1 [Example 1039, (R)-4-(5-methyl-thiazolo[4,5-d]pyrimidin-2-yl)-1-[4-(1,1,2,2-tetrafluoro-ethoxy)-benzenesulfonyl]-piperazine-2-carboxylic acid 4-difluoromethoxy-benzylamide] | – | – | < 100 nM | < 100 nM
4 | CC(=O)N1CCC(CNC(=O)[C@H]2CN(C(C)=O)CCN2S(=O)(=O)c2ccc(OC(F)(F)F)cc2)CC1 [Example 670, (R)-4-acetyl-1-(4-trifluoromethoxy-benzenesulfonyl)-piperazine-2-carboxylic acid (1-acetyl-piperidin-4-ylmethyl)-amide] | – | – | > 1000 nM | > 1000 nM
5 | CCCc1ccc(CNC(=O)[C@H]2CN(c3cnc(C(=O)O)cn3)CCN2S(=O)(=O)c2ccc(CC)cc2)c(Cl)c1 [Example 485, (R)-3-(2-chloro-4-propyl-benzylcarbamoyl)-4-(4-ethyl-benzenesulfonyl)-3,4,5,6-tetrahydro-2H-[1,2′]bipyrazinyl-5′-carboxylic acid] | < 100 nM | < 100 nM | – | –
6 | CCC(F)(F)c1ccc(CNC(=O)[C@H]2CN(c3cnc(CN)c(N)n3)CCN2S(=O)(=O)c2ccc(OC(F)(F)F)cc2)cc1 [Example 638, (R)-6′-amino-5′-aminomethyl-4-(4-trifluoromethoxy-benzenesulfonyl)-3,4,5,6-tetrahydro-2H-[1,2′]bipyrazinyl-3-carboxylic acid 4-(1,1-difluoro-propyl)-benzylamide] | < 100 nM | < 100 nM | – | –
7 | CCCc1ccc(S(=O)(=O)N2CCN(c3nc(C)c(C(=O)OC(C)(C)C)s3)C[C@@H]2C(=O)NCc2ccc(C(C)C)cc2)cc1 [Example 319, 2-[(R)-3-(4-isopropyl-benzylcarbamoyl)-4-(4-propyl-benzenesulfonyl)-piperazin-1-yl]-4-methyl-thiazole-5-carboxylic acid tert-butyl ester] | 100 to 1000 nM | > 1000 nM | – | –
8 | Cc1ncc2nc(N3CCN(S(=O)(=O)c4ccc(OC(F)(F)F)cc4)[C@@H](C(=O)NCc4ccc(OC(F)(F)F)cc4)C3)sc2n1 [Example 921, (R)-4-(5-methyl-thiazolo[5,4-d]pyrimidin-2-yl)-1-(4-trifluoromethoxy-benzenesulfonyl)-piperazine-2-carboxylic acid 4-trifluoromethoxy-benzylamide] | – | – | < 100 nM | 100 to 1000 nM
9 | CC(C)c1ccc(CNC(=O)[C@H]2CN(C(=O)Nc3ccncn3)CCN2S(=O)(=O)c2ccc(C(F)(F)F)cc2)cc1 [Example 300, (R)-4-(4-trifluoromethyl-benzenesulfonyl)-piperazine-1,3-dicarboxylic acid 3-(4-isopropyl-benzylamide) 1-pyrimidin-4-ylamide] | < 100 nM | < 100 nM | – | –
10 | CCCc1ccc(CNC(=O)[C@H]2CN(C(=O)Cn3nnnc3C)CCN2S(=O)(=O)c2ccc(OC(F)(F)F)cc2)cc1 [Example 456, (R)-4-[2-(5-methyl-tetrazol-1-yl)-acetyl]-1-(4-trifluoromethoxy-benzenesulfonyl)-piperazine-2-carboxylic acid 4-propyl-benzylamide] | < 100 nM | < 100 nM | – | –
11 | CCC(F)(F)c1ccc(CNC(=O)[C@H]2CN(c3cnc4cnccc4n3)CCN2S(=O)(=O)c2ccc([N+](=O)[O-])cc2)cc1 [Example 726, (R)-1-(4-nitro-benzenesulfonyl)-4-pyrido[3,4-b]pyrazin-2-yl-piperazine-2-carboxylic acid 4-(1,1-difluoro-propyl)-benzylamide] | – | – | < 100 nM | < 100 nM
12 | CN(C)c1ccc(CNC(=O)[C@H]2CN(C(=O)Cc3ccncc3)CCN2S(=O)(=O)c2ccc(OC(F)(F)F)cc2)cc1 [Example 410, (R)-4-(2-pyridin-4-yl-acetyl)-1-(4-trifluoromethoxy-benzenesulfonyl)-piperazine-2-carboxylic acid 4-dimethylamino-benzylamide] | 100 to 1000 nM | < 100 nM | – | –
13 | CC(=O)N1CCN(S(=O)(=O)c2ccc(OC(F)(F)F)cc2)[C@@H](C(=O)NCc2ccc(Br)cc2)C1 [Example 655, (R)-4-acetyl-1-(4-trifluoromethoxy-benzenesulfonyl)-piperazine-2-carboxylic acid 4-bromo-benzylamide] | 100 to 1000 nM | 100 to 1000 nM | – | –
14 | CC(=O)N1CCN(S(=O)(=O)c2ccc(OC(F)(F)F)cc2)[C@@H](C(=O)NCc2ccc(-c3ccccc3)s2)C1 [Example 614, (R)-4-acetyl-1-(4-trifluoromethoxy-benzenesulfonyl)-piperazine-2-carboxylic acid (5-phenyl-thiophen-2-ylmethyl)-amide] | 100 to 1000 nM | 100 to 1000 nM | – | –
15 | CCCc1ccc(CNC(=O)[C@H]2CN(c3cnc4c(C(=O)O)cccc4n3)CCN2S(=O)(=O)c2ccc(CC)cc2)cc1 [Example 814, 2-[(R)-4-(4-ethyl-benzenesulfonyl)-3-(4-propyl-benzylcarbamoyl)-piperazin-1-yl]-quinoxaline-5-carboxylic acid] | – | – | < 100 nM | < 100 nM
16 | CCCc1ccc(S(=O)(=O)N2CCN(C(C)=O)C[C@@H]2C(=O)NCc2ccc(C(C)C)cc2)c(F)c1 [Example 429, (R)-4-acetyl-1-(2-fluoro-4-propyl-benzenesulfonyl)-piperazine-2-carboxylic acid 4-isopropyl-benzylamide] | < 100 nM | < 100 nM | – | –
17 | CCCc1ccc(CNC(=O)[C@H]2CN(c3nc(C)c(C(=O)O)s3)CCN2S(=O)(=O)c2ccc(OC(F)(F)F)cc2)c(C)c1 [Example 341, 4-methyl-2-[(R)-3-(2-methyl-4-propyl-benzylcarbamoyl)-4-(4-trifluoromethoxy-benzenesulfonyl)-piperazin-1-yl]-thiazole-5-carboxylic acid] | < 100 nM | < 100 nM | – | –
18 | CC(=O)c1ncc2sc(N3CCN(S(=O)(=O)c4ccc(OC(F)(F)F)cc4)[C@@H](C(=O)NCc4ccc(OC(F)(F)F)cc4)C3)nc2n1 [Example 1048, (R)-4-(5-acetyl-thiazolo[4,5-d]pyrimidin-2-yl)-1-(4-trifluoromethoxy-benzenesulfonyl)-piperazine-2-carboxylic acid 4-trifluoromethoxy-benzylamide] | – | – | < 100 nM | < 100 nM
19 | CN(C)C(=O)c1ncc2sc(N3CCN(S(=O)(=O)c4ccc(OC(F)(F)F)cc4)[C@@H](C(=O)NCc4ccc(OC(F)(F)F)cc4)C3)nc2n1 [Example 1041, 2-[(R)-4-(4-trifluoromethoxy-benzenesulfonyl)-3-(4-trifluoromethoxy-benzylcarbamoyl)-piperazin-1-yl]-thiazolo[4,5-d]pyrimidine-5-carboxylic acid dimethylamide] | – | – | < 100 nM | < 100 nM
20 | CC(C)(C)c1ccc(CNC(=O)[C@H]2CN(c3cnc(CO)cn3)CCN2S(=O)(=O)c2ccc(OC(F)(F)F)cc2)cc1 [Example 545, (R)-5′-hydroxymethyl-4-(4-trifluoromethoxy-benzenesulfonyl)-3,4,5,6-tetrahydro-2H-[1,2′]bipyrazinyl-3-carboxylic acid 4-tert-butyl-benzylamide] | < 100 nM | < 100 nM | – | –
21 | CCC(F)(F)c1ccc(CNC(=O)[C@H]2CN(C(=O)Cc3ccncn3)CCN2S(=O)(=O)c2ccc(OC(F)(F)F)cc2)cc1 [Example 590, (R)-4-(2-pyrimidin-4-yl-acetyl)-1-(4-trifluoromethoxy-benzenesulfonyl)-piperazine-2-carboxylic acid 4-(1,1-difluoro-propyl)-benzylamide] | < 100 nM | < 100 nM | – | –
22 | CCCc1ccc(CNC(=O)[C@H]2CN(c3cc(C)c(C(=O)O)nn3)CCN2S(=O)(=O)c2ccc(OC(F)(F)F)cc2)cc1 [Example 487, 4-methyl-6-[(R)-3-(4-propyl-benzylcarbamoyl)-4-(4-trifluoromethoxy-benzenesulfonyl)-piperazin-1-yl]-pyridazine-3-carboxylic acid] | < 100 nM | < 100 nM | – | –
23 | O=C(NCc1ccc(OC(F)F)cc1)[C@H]1CN(c2nn3ccc(=O)nc3s2)CCN1S(=O)(=O)c1ccc(OC(F)F)cc1 [Example 1063, (R)-1-(4-difluoromethoxy-benzenesulfonyl)-4-(7-oxo-7H-[1,3,4]thiadiazolo[3,2-a]pyrimidin-2-yl)-piperazine-2-carboxylic acid 4-difluoromethoxy-benzylamide] | – | – | < 100 nM | < 100 nM
